These results are taken from PubChem BioAssay (NCI).

Some test systems named below: SF-268 CNS; SN12C renal; NCI-H23 lung; NCI-H522 lung; M14 melanoma; HCT-15 colon; NCI/ADR-RES ovarian; SK-MEL-28 melanoma; HCT-116 colon; SW-620 colon.
Common to all, as to experiment: inhibition of tumour cell growth, NCI panel, 48 h

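Each compound was tested at five concentrations against cells in 96-well plates for 48 hours. TGI is the concentration that stops growth completely.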 Some results are limits rather than exact numbers.

Regarding `Cn1c(=O)n2n(c1=O)C1C(=CC2)C2C=CC1n1c(=O)n(C)c(=O)n12` (stereo not given), the TGI in the test on SF-268 CNS, in the test on SN12C renal, in the test with NCI-H23 lung, with NCI-H522 lung, with M14 melanoma and in the test with HCT-15 colon was more than 100 µM in each case. For the same compound, the TGI with NCI/ADR-RES ovarian, in the test with SK-MEL-28 melanoma, in the test on HCT-116 colon and with SW-620 colon was more than 100 µM throughout.

On to `CN1C(C(=O)Nc2ccccn2)=C(O)c2ccccc2S1(=O)=O`, for which the TGI in the test on SF-268 CNS, in the test with SN12C renal, with NCI-H23 lung, in the test with NCI-H522 lung, in the test with M14 melanoma and in the test on HCT-15 colon was more than 100 µM each time. Besides, the TGI with NCI/ADR-RES ovarian, with SK-MEL-28 melanoma, with HCT-116 colon and in the test on SW-620 colon was more than 100 µM each time.

In the case of `O=[N+]([O-])c1ccc(-c2nc3ccccc3o2)cc1`, the TGI in the test with SF-268 CNS, in the test with SN12C renal, in the test with NCI-H23 lung, with NCI-H522 lung, in the test with M14 melanoma and in the test with HCT-15 colon was more than 100 µM in each case. The TGI in the test on NCI/ADR-RES ovarian, in the test on SK-MEL-28 melanoma, with HCT-116 colon and in the test on SW-620 colon was more than 100 µM throughout.

Consider `O=C(NC(Cc1c[nH]c2ccccc12)C(=O)O)/C(=C/c1ccccc1)NC(=O)c1ccccc1` (stereo not given), for which the TGI in the test on SF-268 CNS is more than 100 µM; in the test with SN12C renal, more than 100 µM; in the test on NCI-H23 lung, more than 100 µM; in the test with NCI-H522 lung, more than 88.7 µM; in the test with M14 melanoma it was more than 100 µM; in the test with HCT-15 colon, more than 100 µM. The TGI in the test on NCI/ADR-RES ovarian, with SK-MEL-28 melanoma, in the test on HCT-116 colon and with SW-620 colon was more than 100 µM each time.

`C=C1C[C@]23CC[C@@H]4C(CO)(CO)CC(=O)C[C@]4(C)[C@@H]2C(O)C[C@H]1C3` (stereo not given in full): the TGI in the test with SF-268 CNS, with SN12C renal, in the test with NCI-H23 lung, in the test with NCI-H522 lung, in the test with M14 melanoma and with HCT-15 colon was more than 100 µM each time. Besides, the TGI with NCI/ADR-RES ovarian, in the test with SK-MEL-28 melanoma, in the test with HCT-116 colon and with SW-620 colon was more than 100 µM in each case.

Turning to `O=C(n1c(=O)n(-c2ccc([N+](=O)[O-])cc2)c(=O)n1C(=O)C(Cl)(Cl)Cl)C(Cl)(Cl)Cl`, the TGI with SF-268 CNS, in the test with SN12C renal, in the test with NCI-H23 lung, in the test with NCI-H522 lung, in the test on M14 melanoma and in the test with HCT-15 colon was more than 100 µM in each case. In addition, the TGI with NCI/ADR-RES ovarian, in the test on SK-MEL-28 melanoma, with HCT-116 colon and in the test on SW-620 colon was more than 100 µM throughout.

With `CCCCCCCCCCCOCCC1C(C(C)OCCN2CCCC2)OC2OC(C)(C)OC21` (stereo not given), the TGI was 16 µM with SF-268 CNS; 7.31 µM in the test with SN12C renal; 11 µM in the test with NCI-H23 lung; 1.05 µM in the test on NCI-H522 lung; 1.01 µM in the test on M14 melanoma; 4.35 µM with HCT-15 colon. Further, the TGI with NCI/ADR-RES ovarian came to 19.6 µM; with SK-MEL-28 melanoma it was 3.08 µM; with HCT-116 colon, 3.38 µM; in the test on SW-620 colon it was 3.55 µM.

With `CC1=C(C(=O)OC(C)C)C(c2cccc([N+](=O)[O-])c2)C(C(=O)OC(CO[N+](=O)[O-])CO[N+](=O)[O-])=C(C)N1` (stereo not given), the TGI in the test with SF-268 CNS is 22.7 µM; with SN12C renal, more than 34 µM; in the test on NCI-H23 lung it was more than 100 µM; with NCI-H522 lung, 6.77 µM; in the test with M14 melanoma, 12.7 µM; in the test on HCT-15 colon it was 19 µM. Further, the TGI with NCI/ADR-RES ovarian was more than 25.2 µM; in the test with SK-MEL-28 melanoma it was 33.7 µM; with HCT-116 colon, 9.36 µM; with SW-620 colon, more than 100 µM.

Turning to `Cc1nc(-c2ccc(Cl)cc2)cn2c1nc1ccccc12`, the TGI with SF-268 CNS, in the test with SN12C renal, in the test on NCI-H23 lung, in the test on NCI-H522 lung, with M14 melanoma and in the test with HCT-15 colon was more than 100 µM in each case. Moreover, the TGI in the test on NCI/ADR-RES ovarian, in the test on SK-MEL-28 melanoma, in the test on HCT-116 colon and in the test with SW-620 colon was more than 100 µM in each case.

With `NC(=S)NS(=O)(=O)c1ccc(Cl)cc1Cl`, the TGI in the test with SF-268 CNS, in the test on SN12C renal, in the test with NCI-H23 lung, in the test on NCI-H522 lung, in the test on M14 melanoma and in the test on HCT-15 colon was more than 100 µM each time. Also, the TGI with NCI/ADR-RES ovarian, with SK-MEL-28 melanoma, in the test with HCT-116 colon and with SW-620 colon was more than 100 µM throughout.

`NCCCN1CCN(CCCNc2ccc3ncn4c5ccccc5c(=O)c2c34)CC1`: the TGI in the test with SF-268 CNS is 6.04 µM; with SN12C renal, 3.68 µM; in the test with NCI-H23 lung it was 6.98 µM; with NCI-H522 lung, 1.52 µM; in the test on M14 melanoma it was 8.05 µM; in the test on HCT-15 colon it was more than 25 µM. The TGI in the test on NCI/ADR-RES ovarian was more than 25 µM; with SK-MEL-28 melanoma, 19.6 µM; in the test on HCT-116 colon, 18.3 µM; in the test on SW-620 colon, more than 25 µM.

For `CCCS(=O)OC1C(C2COC(C)(C)O2)OC2OC(C)(C)OC21` (stereo not given), the TGI with SF-268 CNS turned out to be 62.4 µM; in the test on SN12C renal, 31.8 µM; in the test with NCI-H23 lung it was 23.4 µM; with NCI-H522 lung, 25.9 µM; in the test on M14 melanoma, 37.8 µM; in the test with HCT-15 colon it was 41.6 µM. Also, the TGI in the test with NCI/ADR-RES ovarian was 46.1 µM; in the test on SK-MEL-28 melanoma, 32.7 µM; in the test with HCT-116 colon it was 19.4 µM; in the test with SW-620 colon it was 32.8 µM.

Take `COc1ccc(C2=C(N)c3ccccc3C2=O)cc1`: the TGI with SF-268 CNS, with SN12C renal, in the test with NCI-H23 lung, in the test with NCI-H522 lung, in the test with M14 melanoma and with HCT-15 colon was more than 100 µM throughout. Also, the TGI with NCI/ADR-RES ovarian, in the test on SK-MEL-28 melanoma, with HCT-116 colon and in the test on SW-620 colon was more than 100 µM throughout.
